Data from patent US20090118255A1, “Crp Lowering Agent” (TAKEDA PHARMACEUTICAL COMPANY LIMITED, priority 2004, published 2009).

Assays:
CRP = details: literature reports (Ballantyne 2003; Sager 2003); cited from earlier work
plasma CRP = assay: Plasma CRP lowering effect, WHHL rat, 28 days oral with mixed food; format: in vivo; details: male WHHL rat, mean ± SE, N = 11
Procedure: To 2 month-old male WHHL […] (11 per group) was orally administered with a mixed food a vehicle or Test compound 1 at a dose of 100 and 200 mg/kg for 28 days. Before administration and after 28 days administration, plasma CRP level was determined using CRPα Test Wako (Wako Pure Chemical Industries, Ltd.) with Hitachi, Ltd. Autoanalyzer 7070 (Table 1).

| SMILES | CRP lowering activity (CRP) | Plasma CRP level, after 28 days administration (plasma CRP; 100 mg/kg orally with mixed food for 28 days) [mg/dL] | Plasma CRP level, after 28 days administration (plasma CRP; 200 mg/kg orally with mixed food for 28 days, *P < 0.025 vs. control) | Plasma CRP level, value of before administration (plasma CRP; baseline of the 100 mg/kg group) [mg/dL] | Plasma CRP level, value of before administration (plasma CRP; baseline of the 200 mg/kg group) [mg/dL] |
| --- | --- | --- | --- | --- | --- |
| O=C1[C@H](CC[C@H](O)c2ccc(F)cc2)[C@@H](c2ccc(O)cc2)N1c1ccc(F)cc1 [ezetimibe] | no CRP lowering activity |  |  |  |  |
| COc1cccc([C@H]2O[C@H](CC(=O)N3CCC(CC(=O)O)CC3)C(=O)N(CC(C)(C)COC(C)=O)c3ccc(Cl)cc32)c1OC [Test compound 1, N-[[(3R,5S)-1-(3-acetoxy-2,2-dimethylpropyl)-7-chloro-5-(2,3-dimethoxyphenyl)-2-oxo-1,2,3,5-tetrahydro-4,1-benzoxazepin-3-yl]acetyl]piperidine-4-acetic acid] |  | 3.2 ± 0.6 | 2.1 ± 0.2* mg/dL | 4.4 ± 0.4 | 4.4 ± 0.6 |
